Reference: patent US10485803B2, “Pyrimidine compounds as JAK kinase inhibitors” (THERAVANCE BIOPHARMA R&D IP, LLC, priority 2016, dated 2019)

Legend:
JAK1 = JAK1 (Homo sapiens (Human), UniProt P23458); assay: LanthaScreen JAK biochemical assay, JAK1
Procedure: (§1) A panel of four LanthaScreen JAK biochemical assays (JAK1, 2, 3 and Tyk2) were carried in a common kinase reaction buffer (50 mM HEPES, pH 7.5, 0.01% Brij-35, 10 mM MgCl2, and 1 mM EGTA). Recombinant GST-tagged JAK enzymes and a GFP-tagged STAT1 peptide substrate were obtained from Life Technologies.
(§2) Serially diluted compounds were pre-incubated with each of the four JAK enzymes and the substrate in white 384-well microplates (Corning) at ambient temperature for 1 h. ATP was subsequently added to initiate the kinase reactions in 10 μl total volume, with 1% DMSO. […] The plates were allowed to incubate at ambient temperature for 1 h before being read on the EnVision reader (Perkin Elmer).
(§3) For dose-response analysis, percent inhibition data were plotted vs. compound concentrations, and IC50 values were determined from a 4-parameter robust fit model with the Prism software (GraphPad Software). Results were expressed as pIC50 (negative logarithm of IC50) and subsequently converted to pKi (negative logarithm of dissociation constant, Ki) using the Cheng-Prusoff equation.

[1] = system: IL-13 induced STAT6 phosphorylation in HT-29 human colorectal adenocarcinoma cells; assay: Cellular JAK potency assay: inhibition of IL-13; assay type: cell-based; conditions: HT-29 cells
Procedure: The potency of test compounds for inhibition of the JAK-dependent cytokine interleuken-13 (IL-13) was assessed by measuring IL-13 (IL-13, R&D Systems) induced STAT6 phosphorylation in HT-29 human colorectal adenocarcinoma cells (ATCC).
The anti-STAT6 antibody (Cell Signaling Technologies) was conjugated to AlphaScreen acceptor beads (Perkin Elmer), while the anti-pSTAT6 (pTyr641) antibody (Cell Signaling Technologies) was biotinylated using EZ-Link Sulfo-NHS-Biotin (Thermo Scientific).
HT-29 cells were grown at 37° C. in a 5% CO2 humidified incubator in McCoy's 5a Modified medium (ATCC) supplemented with 10% FBS (Hyclone), 100 U/mL penicillin, 100 μg/mL streptomycin (Life Technologies), and 2 mM GlutaMAX (Life Technologies). On day 1 of the assay, cells were seeded at a 7,500 cells/well density in white poly-D-lysine-coated 384-well plates (Corning) with 25 μL medium, and were allowed to adhere overnight in the incubator. On day 2 of the assay, the medium was removed and replaced with 12 μL of assay buffer (Hank's Balanced Salt Solution/HBSS, 25 mM HEPES, and 1 mg/ml bovine serum albumin/BSA) containing dose-responses of test compounds. Compounds were serially diluted in DMSO and then diluted another 1000-fold in media to bring the final DMSO concentration to 0.1%. Cells were incubated with test compounds at 37° C. for 1 h, and followed by the addition of 12 μl of pre-warmed IL-13 (12 ng/ml in assay buffer) for stimulation. After incubating at 37° C. for 30 min, the assay buffer (containing compound and IL-13) was removed, and 10 μl of cell lysis buffer (25 mM HEPES, 0.1% SDS, 1% NP-40, 5 mM MgCl2, 1.3 mM EDTA, 1 mM EGTA, and supplement with Complete Ultra mini protease inhibitors and PhosSTOP from Roche Diagnostics). The plates were shaken at ambient temperature for 30 min before the addition of detection reagents. A mixture of biotin-anti-pSTAT6 and anti-STAT6 conjugated acceptor beads was added first and incubated at ambient temperature for 2 h, followed by the addition of streptavidin conjugated donor beads (Perkin Elmer). After a minimum of 2 h incubation, the assay plates were read on the EnVision plate reader.
Results were expressed as the negative logarithm of the IC50 value, pIC50.

JAK2 = JAK2 (Homo sapiens (Human), UniProt O60674); assay: LanthaScreen JAK biochemical assay, JAK2
Chain of JAK2 (O60674 whole entry): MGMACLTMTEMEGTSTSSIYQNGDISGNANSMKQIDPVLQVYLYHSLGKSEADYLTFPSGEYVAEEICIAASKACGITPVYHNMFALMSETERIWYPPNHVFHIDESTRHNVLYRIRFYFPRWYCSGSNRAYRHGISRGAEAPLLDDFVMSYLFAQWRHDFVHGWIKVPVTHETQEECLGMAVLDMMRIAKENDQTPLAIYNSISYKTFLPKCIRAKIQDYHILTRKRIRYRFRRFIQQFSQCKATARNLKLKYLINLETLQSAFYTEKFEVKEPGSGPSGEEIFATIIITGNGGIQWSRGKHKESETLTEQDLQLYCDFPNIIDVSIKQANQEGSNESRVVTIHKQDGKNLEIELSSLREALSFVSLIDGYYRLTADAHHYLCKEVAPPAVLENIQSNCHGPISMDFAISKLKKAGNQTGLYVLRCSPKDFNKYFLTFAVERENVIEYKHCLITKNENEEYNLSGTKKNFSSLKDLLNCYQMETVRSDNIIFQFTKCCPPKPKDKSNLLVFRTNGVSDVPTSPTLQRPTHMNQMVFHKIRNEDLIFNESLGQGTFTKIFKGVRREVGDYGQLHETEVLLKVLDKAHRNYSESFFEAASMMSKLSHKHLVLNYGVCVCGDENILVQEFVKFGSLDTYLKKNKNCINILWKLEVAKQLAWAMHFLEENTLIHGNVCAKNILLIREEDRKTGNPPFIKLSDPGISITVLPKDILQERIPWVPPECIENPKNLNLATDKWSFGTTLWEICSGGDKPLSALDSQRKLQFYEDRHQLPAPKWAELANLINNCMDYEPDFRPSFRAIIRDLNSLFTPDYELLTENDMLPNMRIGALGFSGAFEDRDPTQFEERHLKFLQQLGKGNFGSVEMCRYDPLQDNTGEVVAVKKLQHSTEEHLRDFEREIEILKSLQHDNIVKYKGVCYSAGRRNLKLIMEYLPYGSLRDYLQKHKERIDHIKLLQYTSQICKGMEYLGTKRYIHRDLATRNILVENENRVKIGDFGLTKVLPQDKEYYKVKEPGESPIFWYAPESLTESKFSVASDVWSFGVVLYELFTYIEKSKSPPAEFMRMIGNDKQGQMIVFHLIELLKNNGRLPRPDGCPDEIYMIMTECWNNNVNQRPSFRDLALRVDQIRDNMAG
Procedure: as §1, §2, §3

[2] = Determination of absorption in cannulated rats; assay type: in vivo, Sprague Dawley rats; conditions: rat, oral vs IV dose, portal vein
Procedure: Oral bioavailability (F %), fraction absorbed (Fa%) and fraction escaping hepatic clearance (Fh%) were determined in Sprague Dawley rats from the following two studies:
(1) Pharmacokinetics in rats following an IV dose of test compound: Following IV dosing, plasma samples were typically collected from 0-6 hr. Drug levels were determined using an LC-MS-MS method. The resulting drug levels were used to compute the IV pharmacokinetic parameters: AUC IV and Dose IV.
(2) Rats that have been cannulated in their portal vein (PV) and also in their jugular vein (JV) were dosed orally with test compound. Following oral dosing, plasma samples were typically collected from 0-6 hr from both the portal vein and the jugular vein. Drug levels were determined using an LC-MS-MS method. The resulting drug levels were used to compute the following pharmacokinetic parameters: AUC PO PV, AUC PO JV, and Dose PO.
Using data derived from the above studies, the oral bioavailability F %, and the quantities Fa% and Fh% were calculated from the following formulas: F%=(AUC PO JV/AUC IV)*(Dose IV/Dose PO)*100 Fa%=(AUC PO PV/AUC IV)*(Dose IV/Dose PO)*100 Fh%=AUC PO JV/AUC PO PV • where: • AUC PO JV=Area under the curve following oral dose and plasma collected from the jugular vein • AUC PO PV=Area under the curve following oral dose and plasma collected from the portal vein • AUC IV=Area under the curve following an intravenous dose • Dose IV=Intravenous Dose in mg/kg • Dose PO=Oral Dose in mg/kg

[3] = system: oxazolone-induced colitis; assay: Mouse model of oxazolone-induced colitis; assay type: in vivo, BALB/C mice; conditions: mice, PO, 1, 3, and/or 10 mg/kg BID
Procedure: Oxazolone-induced colitis is an experimental model that has a histological resemblance to human ulcerative colitis (Heller et al. […], 2002, 17, 629-638). Adult BALB/C mice from Harlan were used in the assay. On day 1, animals were lightly anesthetized with isoflurane and the hairs between the shoulder were carefully removed before oxazolone (4%, 150 μL, 4:1 acetone: olive oil formulation) or vehicle solution was slowly applied for skin sensitization. Seven days after skin sensitization, the mice were fasted overnight, anesthetized with isoflurane inhalation, and a 1 mL syringe equipped with a 3.5-F catheter, filled with oxazolone solution, was inserted carefully about 4 cm into the colon of the mouse. Following insertion, 50 μL of the oxazolone solution (1%, 1:1 ethanol:water formulation) was injected very slowly (over 30 sec using an injection pump) into the colon. The catheter was removed and the mice were held vertically (head down) for 2 min to ensure that the entire oxazolone solution remained inside the colon. Drug treatment (PO, BID or TID) or vehicle was initiated a day prior to the oxazolone intrarectal (IR) challenge. Two-day post oxazolone intrarectal challenge, the Disease Activity Index (DAI) was assessed by treatment-blinded experimenters for each mouse according to the criteria score: stool consistency score (0, normal; 2, loose; 4, diarrhea), gross bleeding score (0, absence; 2, blood tinged; 4, presence), and weight loss score (0, none; 1, 1%-5%; 2, 5%-10%; 3, 10%-20%; 4, more than 20%); DAI=average of (stool consistency score+gross bleeding score+weight loss score).

[4] = Dynamic moisture sorption assessment; assay type: physicochemical; conditions: for hygroscopicity: 5% to 90% RH, two cycles of sorption and desorption; for weight gain in the humidity range of 5% to 90% relative humidity: 25° C. / room temperature
Procedure: Dynamic moisture sorption (DMS) measurement was performed using a VTI atmospheric microbalance, SGA-100 system (VTI Corp., Hialeah, Fla. 33016). A weighed sample was used and the humidity was lowest possible value (close to 0% RH) at the start of the analysis. The DMS analysis consisted of an initial drying step (0% RH) for 120 minutes, followed by two cycles of sorption and desorption with a scan rate of 5% RH/step over the humidity range of 5% RH to 90% RH. The DMS run was performed isothermally at 25° C.

Chain of JAK1 (P23458 whole entry): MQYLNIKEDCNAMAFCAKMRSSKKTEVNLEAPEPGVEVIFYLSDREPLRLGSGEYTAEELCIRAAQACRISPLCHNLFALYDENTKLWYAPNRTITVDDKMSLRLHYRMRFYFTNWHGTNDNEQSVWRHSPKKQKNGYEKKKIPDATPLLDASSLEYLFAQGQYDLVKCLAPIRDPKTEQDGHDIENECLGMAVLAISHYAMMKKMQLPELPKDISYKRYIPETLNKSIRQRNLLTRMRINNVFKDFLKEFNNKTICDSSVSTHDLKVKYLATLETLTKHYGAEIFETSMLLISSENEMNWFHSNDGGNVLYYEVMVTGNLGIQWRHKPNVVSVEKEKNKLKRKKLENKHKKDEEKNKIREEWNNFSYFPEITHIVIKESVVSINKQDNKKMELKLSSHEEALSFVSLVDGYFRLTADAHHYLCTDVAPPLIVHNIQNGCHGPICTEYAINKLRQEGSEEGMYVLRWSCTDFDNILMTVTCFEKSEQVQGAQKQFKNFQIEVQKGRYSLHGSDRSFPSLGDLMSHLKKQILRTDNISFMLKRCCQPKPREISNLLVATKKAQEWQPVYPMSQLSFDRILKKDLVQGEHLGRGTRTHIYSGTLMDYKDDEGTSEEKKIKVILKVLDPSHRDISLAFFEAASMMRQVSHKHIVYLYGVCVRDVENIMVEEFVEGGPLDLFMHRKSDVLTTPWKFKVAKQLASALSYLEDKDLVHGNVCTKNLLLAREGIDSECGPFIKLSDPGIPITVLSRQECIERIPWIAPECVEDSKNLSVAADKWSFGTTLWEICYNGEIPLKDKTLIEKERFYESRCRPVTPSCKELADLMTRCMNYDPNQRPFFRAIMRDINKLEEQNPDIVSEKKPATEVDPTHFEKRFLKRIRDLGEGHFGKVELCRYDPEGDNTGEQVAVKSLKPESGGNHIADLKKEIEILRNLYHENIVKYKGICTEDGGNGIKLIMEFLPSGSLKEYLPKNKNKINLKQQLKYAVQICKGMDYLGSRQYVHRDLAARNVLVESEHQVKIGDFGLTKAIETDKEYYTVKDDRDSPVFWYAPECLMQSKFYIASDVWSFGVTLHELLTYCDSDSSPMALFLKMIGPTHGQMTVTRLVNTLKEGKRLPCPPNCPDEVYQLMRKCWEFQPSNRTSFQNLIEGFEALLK

Compound: COc1cc(Nc2cc(CO)[nH]n2)nc(N[C@@H]2C[C@H]3CCC[C@@H](C2)N3S(=O)(=O)N2CC(C#N)C2)n1 [Example 1-6, 1-(((1R,3s,5S)-3-((4-((5-(hydroxymethyl)-1H-pyrazol-3-yl)amino)-6-methoxypyrimidin-2-yl)amino)-9-azabicyclo[3.3.1]nonan-9-yl)sulfonyl)azetidine-3-carbonitrile]
- JAK 1 (pKi) (JAK1): A (A represents a pKi value ≥10 (Ki≤0.1 nM))

Compound: COc1cc(Nc2cc(CO)[nH]n2)nc(N[C@@H]2C[C@H]3CCC[C@@H](C2)N3S(=O)(=O)c2ccccc2)n1 [Example 1-8, (3-((6-methoxy-2-(((1R,3s,5S)-9-(phenylsulfonyl)-9-azabicyclo[3.3.1]nonan-3-yl)amino)pyrimidin-4-yl)amino)-1H-pyrazol-5-yl)methanol]
- HT-29 (pIC50) [1]: A (A represents a pIC50 value ≥7.5 (IC50≤32 nM))
- JAK 1 (pKi) (JAK1): A (A represents a pKi value ≥10 (Ki≤0.1 nM))

Compound: COc1cc(Nc2cc(CO)[nH]n2)nc(N(C)[C@@H]2C[C@H]3CCC[C@@H](C2)N3S(=O)(=O)N2CCCC2)n1 [Example 1-13, (3-((6-methoxy-2-(methyl((1R,3s,5S)-9-(pyrrolidin-1-ylsulfonyl)-9-azabicyclo[3.3.1]nonan-3-yl)amino)pyrimidin-4-yl)amino)-1H-pyrazol-5-yl)methanol]
- HT-29 (pIC50) [1]: A (A represents a pIC50 value ≥7.5 (IC50≤32 nM))
- JAK 1 (pKi) (JAK1): A (A represents a pKi value ≥10 (Ki≤0.1 nM))
- JAK 2 (pKi) (JAK2): A (A represents a pKi value ≥10 (Ki≤0.1 nM))

Compound: COc1cc(Nc2cc(CO)[nH]n2)nc(N(C)[C@@H]2C[C@H]3CCC[C@@H](C2)N3S(=O)(=O)C2CC2)n1 [Example 1-14, (3-((2-(((1R,3s,5S)-9-(cyclopropylsulfonyl)-9-azabicyclo[3.3.1]nonan-3-yl)(methyl)amino)-6-methoxypyrimidin-4-yl)amino)-1H-pyrazol-5-yl)methanol]
- HT-29 (pIC50) [1]: A (A represents a pIC50 value ≥7.5 (IC50≤32 nM))
- JAK 2 (pKi) (JAK2): A (A represents a pKi value ≥10 (Ki≤0.1 nM))

Compound: COc1cc(Nc2cc(CO)[nH]n2)nc(N(C)[C@@H]2C[C@H]3CCC[C@@H](C2)N3S(=O)(=O)c2cccnc2)n1 [Example 1-15, (3-((6-methoxy-2-(methyl((1R,3s,5S)-9-(pyridin-3-ylsulfonyl)-9-azabicyclo[3.3.1]nonan-3-yl)amino)pyrimidin-4-yl)amino)-1H-pyrazol-5-yl)methanol]
- JAK 2 (pKi) (JAK2): A (A represents a pKi value ≥10 (Ki≤0.1 nM))

Compound: COc1cc(Nc2cc(CO)[nH]n2)nc(N(C)[C@@H]2C[C@H]3CCC[C@@H](C2)N3S(=O)(=O)N2CCC2)n1 [Example 1-17, (3-((2-(((1R,3s,5S)-9-(azetidin-1-ylsulfonyl)-9-azabicyclo[3.3.1]nonan-3-yl)(methyl)amino)-6-methoxypyrimidin-4-yl)amino)-1H-pyrazol-5-yl)methanol]
- HT-29 (pIC50) [1]: A (A represents a pIC50 value ≥7.5 (IC50≤32 nM))
- JAK 2 (pKi) (JAK2): A (A represents a pKi value ≥10 (Ki≤0.1 nM))

Compound: COc1cc(Nc2cc(CO)[nH]n2)nc(N(C)[C@@H]2C[C@H]3CCC[C@@H](C2)N3S(=O)(=O)c2cncc(F)c2)n1 [Example 1-19, (3-((2-(((1R,3s,5S)-9-((5-fluoropyridin-3-yl)sulfonyl)-9-azabicyclo[3.3.1]nonan-3-yl)(methyl)amino)-6-methoxypyrimidin-4-yl)amino)-1H-pyrazol-5-yl)methanol]
- HT-29 (pIC50) [1]: A (A represents a pIC50 value ≥7.5 (IC50≤32 nM))

Compound: COc1cc(Nc2cc(CO)[nH]n2)nc(N(C)[C@@H]2C[C@H]3CCC[C@@H](C2)N3S(C)(=O)=O)n1 [Example 3, (3-((6-methoxy-2-(methyl((1R,3s,5S)-9-(methylsulfonyl)-9-azabicyclo[3.3.1]nonan-3-yl)amino)pyrimidin-4-yl)amino)-1H-pyrazol-5-yl)methanol]
- absorption at the portal vein (Fa%) [2]: greater than 40%

Compound: COCCS(=O)(=O)N1[C@@H]2CCC[C@H]1C[C@H](N(C)c1nc(Nc3cc(CO)[nH]n3)cc(OC)n1)C2 [Example 4, (3-((6-methoxy-2-(((1R,3s,5S)-9-((2-methoxyethyl)sulfonyl)-9-azabicyclo[3.3.1]nonan-3-yl)(methyl)amino)pyrimidin-4-yl)amino)-1H-pyrazol-5-yl)methanol]
- absorption at the portal vein (Fa%) [2]: greater than 40%
- decrease in DAI score as compared with vehicle treated animals [3]: statistically significant decrease

Compound: COc1cc(Nc2cc(CO)[nH]n2)nc(N(C)[C@@H]2C[C@H]3CCC[C@@H](C2)N3C(=O)C(F)F)n1 [Example 9, 2,2-difluoro-1-((1R,3s,5S)-3-((4-((5-(hydroxymethyl)-1H-pyrazol-3-yl)amino)-6-methoxypyrimidin-2-yl)(methyl)amino)-9-azabicyclo[3.3.1]nonan-9-yl)ethan-1-one]
- IC50 ([1]; Homo sapiens, read-out: HT-29 (pIC50) (converted)): 31.6 to 200 nM

Compound: COc1cc(Nc2cc(CO)[nH]n2)nc(N(C)[C@@H]2C[C@H]3CCC[C@@H](C2)N3S(=O)(=O)N2CC(C#N)C2)n1 [Form I, 1-(((1R,3s,5S)-3-((4-((5-(hydroxymethyl)-1H-pyrazol-3-yl)amino)-6-methoxypyrimidin-2-yl)(methyl)amino)-9-azabicyclo[3.3.1]nonan-9-yl)sulfonyl)azetidine-3-carbonitrile]
- hygroscopicity [4]: non-hygroscopic
- weight gain in the humidity range of 5% to 90% relative humidity [4]: less than 0.4%
- weight gain in the humidity range of 5% to 90% relative humidity ([4]; listed as Crystalline 1-((1R,3s,5S)-3-((4-((5-(hydroxymethyl)-1H-pyrazol-3-yl)amino)-6-me)))): less than 0.4%

Compound: COc1cc(Nc2cc(CO)[nH]n2)nc(N(C)[C@@H]2C[C@H]3CCC[C@@H](C2)N3S(=O)(=O)N2CC(C#N)C2)n1 [Form II, 1-(((1R,3s,5S)-3-((4-((5-(hydroxymethyl)-1H-pyrazol-3-yl)amino)-6-methoxypyrimidin-2-yl)(methyl)amino)-9-azabicyclo[3.3.1]nonan-9-yl)sulfonyl)azetidine-3-carbonitrile]
- hygroscopicity [4]: slightly hygroscopic
- weight gain in the humidity range of 5% to 90% relative humidity [4]: about 1.2%
